“Also recorded” adds a separate entry of the source.
Tests used:
[1] = target: T1, RDH5 (Bos taurus, UniProt Q27979); assay: 11-cis-retinol oxidation assay; format: biochemical; conditions: bovine RPE microsomes preincubated with 10-50 μM
T1 construct: from tissue; host or cells: bovine RPE microsomes
T1 sequence (Q27979 1-318): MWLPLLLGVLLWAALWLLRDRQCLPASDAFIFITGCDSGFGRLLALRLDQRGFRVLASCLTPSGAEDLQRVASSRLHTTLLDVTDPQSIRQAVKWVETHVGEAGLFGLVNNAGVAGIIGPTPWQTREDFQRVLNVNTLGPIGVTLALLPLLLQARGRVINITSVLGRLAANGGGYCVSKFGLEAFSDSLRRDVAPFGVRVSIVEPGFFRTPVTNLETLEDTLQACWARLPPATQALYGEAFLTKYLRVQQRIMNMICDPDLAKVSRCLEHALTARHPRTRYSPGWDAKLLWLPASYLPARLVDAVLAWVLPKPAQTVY
Description: Dehydrogenase activity was assayed by monitoring oxidation of 11-cis-retinol to a corresponding aldehyde in bovine RPE microsomes. The reaction mixture containing 20 mM Tris/HCl buffer, pH 8.0, 1% BSA (w/v), 20 μM NAD+, and RPE microsomes (˜100 μg of total protein) in the total volume of 0.1 mL. 11-cis-Retinol (10 μM) was incubated at 30° C. for 10 min. The reaction was stopped by 0.2 mL of methanol that contained 40 mM hydroxylamine. After subsequent 15 min of incubation at RT, the retinoids were extracted with 0.3 mL of hexane and analyzed by normal-phase HPLC as described for the retinol esterification assay.
Thus, to further probe the biological effect of this compound, we tested its effect on the key enzymes of the visual cycle. For this purpose, microsomes isolated from bovine RPE cells were preincubated with 10-50 μM of abn-CBD (1:1 to 1:5 molar excess of cannabinoid) prior to the initiation of the esterification, isomerization, or oxidation reactions by addition of an adequate retinoid substrate.

[2] = target: T2, holo-CRBP1 (Homo sapiens, UniProt P09455); assay: Retinol replacement assay with repurification and LC/MS; format: binding
T2 construct: made in house
T2 sequence (P09455 1-135): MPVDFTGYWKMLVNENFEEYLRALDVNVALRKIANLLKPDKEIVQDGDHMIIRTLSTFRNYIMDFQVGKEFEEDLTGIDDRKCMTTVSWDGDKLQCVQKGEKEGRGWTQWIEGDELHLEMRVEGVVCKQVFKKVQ
Description: holo-CRBP1 (500 μg) in 0.5 mL (67 μM) was incubated with tested compound (1:2 molar ratio) delivered in ethanol in 20 mM Tris/HCl, pH 8.0, 200 mM NaCl, 5% glycerol (v/v) at RT for 15 min. The sample was then diluted with 10 mM Tris/HCl, pH 8.0 to the final volume of 5 mL, loaded onto HiTrap Q HP column, and eluted as described above. The elution profiles were monitored at both 280 and 325 nm to concurrently record signals for the protein and the retinoid moieties.
After incubation of apo- or holo-CRBP1 with abn-CBD, the protein was repurified on HiTrap Q HP column as described above. The protein fractions were collected, pooled together, and concentrated to 0.25 mL in an Amicon Ultra-4 centrifugal filter, cutoff 10,000 Da. For quantification purpose, 100 pmol of 3d-abn-CBD (internal standard) were added to the protein samples. To extract organic compounds associated with the repurified CRBP1, 0.25 mL of ethanol was added followed by 4 mL of hexane. […] Abn-CBD and its deuterated derivative were detected in the selected reaction monitoring (SRM) mode using m/z 315.2→221.2 and 318.2→224.1 transitions, respectively. Calibration curves were calculated based on the linear relationship between areas under SRM ion intensity for peaks corresponding to abn-CBD and the internal standard versus molar ratios of these compounds in a range from 20 to 500 pmol.

[3] = target: cannabinoid receptor 2 (Homo sapiens, UniProt P34972); conditions: cited from earlier work
[4] = tested on: Balb/cJ mice; assay: Electroretinography (ERG) after photobleach; format: in vivo; conditions: 30 mg kg^−1; scotopic ERG 4 h after flash of light
Description: Before the ERG recording, dark-adapted Balb/cJ mice were anesthetized with 20 mg mL^−1 ketamine and 1.75 mg mL^−1 xylazine in PBS at a dose of 0.1-0.13 mL per 25 g of body weight, and pupils were dilated with 1% tropicamide. Contact lens electrodes were placed on the eyes, and a reference electrode was positioned between two ears, while ground electrode was placed on the tail. Scotopic ERGs were recorded for both eyes of each mouse using a UTAS E-3000 universal testing and ERG system (LKC Technologies).
To quantify the effect of the CRBP1 inhibitor on the recovery of visual sensitivity after a light stimulus, we measured full-field electroretinography (ERG) responses in mice. Prior to the illumination, the animals were either treated with DMSO (vehicle) or abn-CBD. Both drugs were administrated in a dose of 30 mg kg^−1. Scotopic ERG responses at varying light intensities were recorded 4 h after the exposure to a flash of light that photobleached ˜50% of the visual pigment. […] However, even in a relatively high dose used in this experiment, the inhibitor of CRBP1 had much smaller impact on the visual cycle without causing its blockage, as it was reported for retinylamine and emixustat.

Chain of cannabinoid receptor 2 (P34972 whole entry): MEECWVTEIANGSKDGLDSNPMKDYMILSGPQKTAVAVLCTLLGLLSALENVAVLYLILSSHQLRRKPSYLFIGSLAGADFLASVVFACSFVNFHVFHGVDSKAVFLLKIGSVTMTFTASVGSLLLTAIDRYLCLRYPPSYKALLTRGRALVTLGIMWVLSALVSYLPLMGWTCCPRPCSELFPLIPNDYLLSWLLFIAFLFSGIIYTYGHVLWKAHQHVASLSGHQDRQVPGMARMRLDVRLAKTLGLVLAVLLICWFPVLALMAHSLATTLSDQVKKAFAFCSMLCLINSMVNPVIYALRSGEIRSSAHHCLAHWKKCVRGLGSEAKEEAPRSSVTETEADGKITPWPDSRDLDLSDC

C=C(C)[C@@H]1CCC(C)=C[C@H]1c1c(O)cc(O)cc1CCCCC [abn-CBD, 4-[(1R,6R)-3-Methyl-6-prop-1-en-2-ylcyclohex-2-en-1-yl]-5-pentylbenzene-1,3-diol]
effect on enzymatic activity of RDH5 [1]: did not cause a measurable decline
loss of atROL from holo-CRBP1 (absorbance at 325 nm) ([2]; holo-CRBP1 incubated with compound 1:2 molar ratio, repurified): diminished absorbance at 325 nm; also recorded: depletion of atROL
replacement of atROL by ligand (ligand/protein quantification) ([2]; holo-CRBP1 with 2 molar excess of abn-CBD, LC/MS): proportional replacement of the retinoid by the cannabinoid
interaction with cannabinoid receptor 2 [3]: does not interact
recovery of a-wave and b-wave amplitudes (dark adaptation) [4]: slower; also recorded: slight delay in the dark adaptation

Source: US20210228500A1, “CELLULAR RETINOID BINDING PROTEIN ANTAGONISTS AND USES THEREOF” (CASE WESTERN RESRVE UNIVERSITY, priority 2018, published 2021)
